Like-named read-outs stand apart in the source and are kept apart here. One block for each compound: values may come before it.
How the values were obtained:
[1] = Treatment of sulfides in municipal wastewater using ferric chelants and hydrogen peroxide; settings: 20 ppm chelant and 105.8 ppm hydrogen peroxide
[2] = Treatment of sulfides in municipal wastewater using ferric chelants and ozone; settings: ozone ~13.4 ppm, 4 ppm ferric chelant where used; for sulfide remaining: start 13.70
Excerpt: The raw wastewater received a dose of 4 ppm of each of the four ferric chelants (mass calculated as chelant) just prior to addition of ozone.
Ozone addition was accomplished using an ozone generator from Ozone Solutions, Sioux Center, Iowa. The generator was capable of generating up to 2 grams per hour of ozone. Injection of ozone into the wastewater was accomplished using an injection system from Ozone Solutions called the H2O-Mini. The unit is designed to treat from 1.5 to 5.7 liters per minute of wastewater. The unit was set up to deliver 6.7 mg/minute of dissolved ozone (assumed the 80% efficiency of dissolution noted by the manufacturer) to wastewater passing the injection nozzle within the H2O-mini. Each test was designed for maximum wastewater flow through the H2O-mini (5.7 liters/min).
An objective of the study will be to treat most, but not all, of the sulfide present within the individual test samples in order to determine which treatment was more efficient than the others.
Samples were taken over twenty minutes of contact time from the recirculation vessel after ozonation. For each of the four ferric chelant studies, chelants were added to the wastewater recirculation vessels just prior to starting the injection of ozone and recirculation of the liquids. The injection of ozone was applied over the prescribed period and sampled as before in the ozone only experiment.

[3] = system: total heterotrophic bacteria; experiment: Disinfection of wastewater using chelated iron compounds; format: cell-based; settings: 30 min, raw average 18,188 CFUs; for Test 3 CFUs/ml 12 ppm Fe-Chelant: chelant alone, no H2O2
Procedure: The clarified supernatant was then pored off of the top of the settled solids within the sample. The supernatant was then mixed and four samples were collected to determine untreated heterotrophic bacteria counts. […] were dissolved in distilled water at 0.4334M. Ferric chloride was added in amounts to achieve saturation of chelant sites on the respective chelants. […] Twenty individual liter samples of supernatant were then decanted from the well-mixed wastewater sample for testing. Four chelated iron products with peroxide were tested at two test concentrations and compared to samples receiving peroxide only and iron chelate only. […] Samples were then decanted to sterile sample containers containing sodium thiosulfate to stop the oxidation process and preserve the sample. Samples were then placed in a refrigerator until all samples were finished. Samples were packaged in a standard cooler with ice packs and sent via overnite delivery to ProChem Labs in Lynchburg, Va. for analysis for total heterotrophic bacteria counts.

[4] = cited from earlier work
[5] = Anaerobic sulfide treatment: pure oxygen versus pure oxygen + ferric MGDA and nitrate; settings: for Sulfide: control 33, 10 cc pure oxygen, ~0.1 ml ~0.03 M Fe MGDA with ~8.75 mg nitrate where used
Excerpt: Three 300 milliliter Supelco test flasks were utilized for conducting the testing. Each flask had two valves and a single port for a septum to inject chemistry into the vessel. Each test flask was completely filled to zero headspace with wastewater from a municipal wastewater treatment facility that had been spiked with sodium sulfide. […] Test flasks were left at room temperature for two hours to assure that any oxygen within the wastewater in the test flasks was consumed prior to the study so as to mimic anaerobic wastewater conditions to initiate the study. […] Oxygen was injected simultaneously with a slight opening of a valve on the cylinder so that wastewater could could be displaced by the incoming volume of oxygen. […] The control sample flask received no injection of any ingredients. After injection of ingredients into each test flask, the flasks were placed on a New Brunswick Shaker Table and shaken for variable periods of time at ˜200 rpm's. After each test period flasks were removed and a sample extracted for sulfide testing using a La Motte Sulfide Color Comparison Test Kit. Sample for the control was taken at time zero for each study.

[6] = Anaerobic sulfide treatment: pure oxygen versus pure oxygen + ferric MGDA; settings: 10 cc pure oxygen, ~0.1 ml ~0.03 M Fe MGDA where used
[7] = Nitrate addition to sewage, lab jar tests and sewage collection system test

Compound: O=C([O-])CN(CCN(CC(=O)[O-])CC(=O)[O-])CC(=O)[O-].[Fe+3] [Fe-EDTA]
sulfide reduction after 15 minutes [1]: 60%
Overall total percentage of sulfide reduction [2]: 64%
Overall total percentage of sulfide reduction ([2]; listed as ferric EDTA): 64%
sulfide remaining ([2]; 5 min contact): 6.20 ppm
sulfide remaining ([2]; 10 min contact): 5.10 ppm
sulfide remaining ([2]; 20 min contact): 4.90 ppm
Test 1 CFUs/ml 19.8 ppm H2O2 6 ppm Fe-Chelant [3]: 360 CFUs/ml
Test 2 CFUs/ml 39.6 ppm H2O2 12 ppm Fe-Chelant [3]: 59 CFUs/ml
Test 3 CFUs/ml 12 ppm Fe-Chelant [3]: 18,200 CFUs/ml

sulfide remaining ([2]; 5 min contact): 6.80 ppm
sulfide remaining ([2]; 10 min contact): 6.00 ppm
sulfide remaining ([2]; 20 min contact): 5.40 ppm
Compound: O=C([O-])CN(CCO)CC(=O)[O-].[Fe+3] [Fe-HEIDA]
Overall total percentage of sulfide reduction [2]: 60%
Overall total percentage of sulfide reduction ([2]; listed as ferric HEIDA): 60%
Test 1 CFUs/ml 19.8 ppm H2O2 6 ppm Fe-Chelant [3]: 1350 CFUs/ml
Test 2 CFUs/ml 39.6 ppm H2O2 12 ppm Fe-Chelant [3]: 84 CFUs/ml
Test 3 CFUs/ml 12 ppm Fe-Chelant [3]: 16,700 CFUs/ml

Compound: O=C([O-])CN(CC(=O)[O-])CC(=O)[O-].[Fe+3] [Fe-NTA]
sulfide reduction after 15 minutes [1]: 70.2%
Overall total percentage of sulfide reduction [2]: 91%
Overall total percentage of sulfide reduction ([2]; listed as ferric NTA): 91%
sulfide remaining ([2]; 5 min contact): 3.40 ppm
sulfide remaining ([2]; 10 min contact): 1.90 ppm
sulfide remaining ([2]; 20 min contact): 1.30 ppm
Test 1 CFUs/ml 19.8 ppm H2O2 6 ppm Fe-Chelant [3]: 370 CFUs/ml
Test 2 CFUs/ml 39.6 ppm H2O2 12 ppm Fe-Chelant [3]: 75 CFUs/ml
Test 3 CFUs/ml 12 ppm Fe-Chelant [3]: 18,300 CFUs/ml

Compound: S [HS^−]
Proportion in dissolved sulfide ([4]; pH 5.0): ~0.01
Proportion in dissolved sulfide ([4]; pH 6.0): ~0.09
Proportion in dissolved sulfide ([4]; pH 6.2): ~0.14
Proportion in dissolved sulfide ([4]; pH 6.4): ~0.20
Proportion in dissolved sulfide ([4]; pH 6.6): ~0.28
Proportion in dissolved sulfide ([4]; pH 6.8): ~0.39
Proportion in dissolved sulfide ([4]; pH 7.0): ~0.50
Proportion in dissolved sulfide ([4]; pH 7.2): ~0.61
Proportion in dissolved sulfide ([4]; pH 7.4): ~0.72
Proportion in dissolved sulfide ([4]; pH 7.6): ~0.80
Proportion in dissolved sulfide ([4]; pH 7.8): ~0.86
Proportion in dissolved sulfide ([4]; pH 8.0): ~0.91
Proportion in dissolved sulfide ([4]; pH 8.2): ~0.941
Proportion in dissolved sulfide ([4]; pH 8.4): ~0.961
Proportion in dissolved sulfide ([4]; pH 8.6): ~0.975
Proportion in dissolved sulfide ([4]; pH 8.8): ~0.986
Proportion in dissolved sulfide ([4]; pH 9.0): ~0.99

Compound: O=O [Oxygen, oxygen]
Sulfide ([5]; 5 min): 30
Sulfide ([5]; 10 min): 16
sulfide reduced ([5]; after 10 minutes of contact): approximately 50%
Sulfide ([6]; Trial 1, 5 min, control 33, 300 ml flask): 25 mg/L
Sulfide ([6]; Trial 2, 5 min, control 31): 25 mg/L
Sulfide ([6]; Trial 2, 22 min, control 31): 1.5 mg/L

Compound: O=[O+][O-] [Ozone, ozone, reference compound]
Overall total percentage of sulfide reduction [2]: 46%
sulfide remaining ([2]; 5 min contact): 8.05 ppm
sulfide remaining ([2]; 10 min contact): 7.50 ppm
sulfide remaining ([2]; 20 min contact): 7.40 ppm

Compound: O=[N+]([O-])[O-].[Na+] [sodium nitrate]
reduction in sewage biological oxygen demand, BOD [7]: ≤ 70%
dissolved hydrogen sulfide after dosing ([7]; sewage containing over approximately 50 mg/L dissolved hydrogen sulfide): < 0.1 mg/L
